Measured values published in patent publication US20220175955A1, “PEPTIDE DISPLAY TO ANTIGEN PRESENTING CELLS USING LIPID VEHICLE” (Torque Therapeutics Inc., priority 2018, published 2022).

Test system: CD11c+ BMDCs
Assay: Antigen presentation (MHC I:SIINFEKL) on antigen-pulsed BMDCs in vitro, flow cytometry
Type: cell-based, mouse
Details: 1 μM epitope; later time points (48 h to 96 h); FIG. 1
Description: Bone marrow derived dendritic cells (BMDCs) were differentiated in vitro before antigen pulsing. Bone marrow cells were isolated from tibia and femur from C57bl/6 JrJ mice obtained from Janvier SAS. After sacrificing the mice by cervical dislocation, bones were isolated and kept in tissue storage solution (MACS Miltenyi). After a 2 min sterilization in 70% ethanol, bones were cut at each end with a scalpel end flushed with medium by using a 29 g insulin syringe. Following isolation, bone marrow cells were cultured in complete RPMI 1640 medium supplemented with 20 ng/ml mouse recombinant GM-CSF. On day 3, cells were supplemented with fresh medium containing GM-CSF. On day 6, immature BMDCs were harvested, re-plated and incubated with 1 μM liposomal (MK062 or MK062 TMX) or soluble SIINFEKL epitope. BMDCs were harvested after 24 or 48 hours for flow cytometry analysis. […] After blocking for 5 min on ice, cells were stained with antibodies against the dendritic cell marker CD11c and assessed for antigen presentation by an antibody recognizing SIINFEKL presented on MHC I molecules (H-2kb). […]
[…] After blocking for 5 min on ice, cells were stained with antibodies against the dendritic cell marker CD11c and assessed for antigen presentation by an antibody recognizing SIINFEKL presented on MHC I molecules (H-2kb). […]

Sequence: SIINFEKL (Synthetic antigen)
- Antigen presentation (MFI of MHC:SIINFEKL in CD11c+ BMDCs): decreased markedly
